The subject of test [1] is Jurkat E6-1 cells. As to the kind of experiment: Fluorescent Calcium Flux Assay (thapsigargin store depletion, FLIPR Calcium 5 dye). It is filed as cell-based. As to conditions: Homo sapiens, Thapsigargin 10µM, 2mM final calcium concentration, read-out: Ca^2+ flux IC50. As for the experimental part:
Fluorescent Calcium Flux Assay
Jurkat E6-1 cells were obtained from ATCC (number TIB-152™) and maintained as ATCC recommend; in medium RPMI-1640 with 10% FBS at 37°C and 5% CO2.
Before the assay, Jurkat cells were grown at a density of 2 millions cells/ml in cell culture media (RPMI with 10% FBS) in a T-175 flask at 37°C and 5% CO2.
The day of the assay, cells were harvested by centrifugation (5 minutes at 1500 rpm) and the pellet were suspended in Ca^2+ free assay buffer (HBSS w/o Ca^2+ and Mg ^2+, 20mM Hepes and 1 mM MgCl2, pH 7.4) at a density of 5 million cells/ml.
Calcium depletion was initiated by the addition to the cell suspension of Thapsigarguin at a final assay concentration of 10µM. 20µl of the cellular suspension containing Thapsigargin (100.000 cells/well) were plated into 384 well plates (corning 3711) and incubated at RT for 15 minutes.
Test compounds were diluted in DMSO 100% to get a 10^-2M stock solution and serial dilutions 1/3 were performed in the same solvent. Then, 20µl of test compounds, diluted 75 times in Ca^2+ free assay buffer, were added to the cells and incubated at RT for 1h.
Once this incubation was completed, 5 µl of dye solution (FLIPR Calcium 5 Express Kit, Molecular Devices), prepared as Molecular Devices recommend, were added into the assay plates followed by an extra incubation period of 1 hour at room temperature. After the second incubation period, assay plates were placed into the FLIPR Tetra from Molecular Devices. Fluorescence was measured at a wavelength of 525nm after the dye excitation at 485nm. The initial baseline was measured during 20 seconds, and then 8µl of a 13mM Calcium solution in assay buffer were added (2mM final calcium concentration) except for basal wells, where assay buffer without calcium was added. At this time, changes in the cellular fluorescent were measured for an extra 80 seconds.
Peak and base line were taken for the calculation of the ratio (Peak/Base Line). Total, basal and compound well ratio values were used to calculate %Inhibition.
(In general: A change in cytosolic calcium serves as a functional read-out for many receptors and channels.)

Test [2] relates to Jurkat E6-1 cells. As to the kind of experiment: In vitro Assay of Cytokine Release from T Cells (PHA-stimulated IL-2, ELISA). It is filed as cell-based. As to conditions: Homo sapiens, PHA 20 µg/ml, 20 hours, IL-2 by ELISA, read-out: Jurkat IL2 IC50. As for the experimental part: In vitro Assay of Cytokine Release from T Cells
Jurkat E6-1 cells were obtained from American Type Culture Collection (ATCC) and maintained in complete medium with 10% fetal bovine serum (FBS) at 37°C/5%CO2. Cells were plated in 100 µL of Dubelcco's Modified Eagle Medium (DMEM) with 1% FBS in a 96 well plate at a density of 1x10^6 cells/well and 50 µL of test compound was added. Cells were then stimulated by the addition of 50 µL of phytohemagglutinin (PHA) (final concentration 20 µg/ml) and incubated at 37°C/5%CO2 for 20 hours. On the following day, the supernatants were collected and assayed for IL-2 levels by ELISA according to the manufacturer's protocols. The IC50 value was calculated as the concentration at which 50% of secreted IL-2 in vehicle is inhibited.

Consider three compounds from patent EP2848615A1, “New pyrazole derivatives as CRAC channel modulators” (Almirall, S.A., priority 2013, dated 2015).

As a reminder, the IC50 is the concentration that inhibits the measured activity by half.

On to `Cn1nc(-c2ccccc2)cc1NC(=O)c1cc(-c2c(F)cccc2Cl)[nH]n1` [Example 6, 5-(2-chloro-6-fluorophenyl)-N-(1-methyl-3-phenyl-1H-pyrazol-5-yl)-1H-pyrazole-3-carboxamide], for which the IC50 in test [1] came to 559 nM; in test [2] it was 410 nM.

Take `COc1ccc(OC)c(NC(=O)c2cc(-c3c(F)cccc3Cl)[nH]n2)c1` [Example 5, 5-(2-chloro-6-fluorophenyl)-N-(2,5-dimethoxyphenyl)-1H-pyrazole-3-carboxamide]: the half-inhibitory concentration (IC50) in test [1] was 135 nM; in test [2], 62 nM.

Consider `Cn1nc(C(F)(F)F)cc1NC(=O)c1cc(-c2c(F)cccc2Cl)[nH]n1` [Example 1, 5-(2-chloro-6-fluorophenyl)-N-[1-methyl-3-(trifluoromethyl)-1H-pyrazol-5-yl]-1H-pyrazole-3-carboxamide], for which the IC50 is 332 nM in test [1] and 130 nM in test [2].
